ChEMBL document CHEMBL5104155, “Novel etodolac derivatives as eukaryotic elongation factor 2 kinase (eEF2K) inhibitors for targeted cancer therapy” (RSC Med Chem, 2022)
Active and inactive are the calls of the source. The rule behind the calls is not given here.

Legend:
Format in all cases: cell-based
[1] = biological target: T1, Eukaryotic elongation factor 2 kinase (Homo sapiens) (UniProt O00418); assay: Inhibition of eEF2K in human MDA-MB-231 cells assessed as decrease in phosphorylation of eEF2 at Thr56 residue at 5 uM incubated for 2 hrs by western blot analysis
T1 sequence (whole entry): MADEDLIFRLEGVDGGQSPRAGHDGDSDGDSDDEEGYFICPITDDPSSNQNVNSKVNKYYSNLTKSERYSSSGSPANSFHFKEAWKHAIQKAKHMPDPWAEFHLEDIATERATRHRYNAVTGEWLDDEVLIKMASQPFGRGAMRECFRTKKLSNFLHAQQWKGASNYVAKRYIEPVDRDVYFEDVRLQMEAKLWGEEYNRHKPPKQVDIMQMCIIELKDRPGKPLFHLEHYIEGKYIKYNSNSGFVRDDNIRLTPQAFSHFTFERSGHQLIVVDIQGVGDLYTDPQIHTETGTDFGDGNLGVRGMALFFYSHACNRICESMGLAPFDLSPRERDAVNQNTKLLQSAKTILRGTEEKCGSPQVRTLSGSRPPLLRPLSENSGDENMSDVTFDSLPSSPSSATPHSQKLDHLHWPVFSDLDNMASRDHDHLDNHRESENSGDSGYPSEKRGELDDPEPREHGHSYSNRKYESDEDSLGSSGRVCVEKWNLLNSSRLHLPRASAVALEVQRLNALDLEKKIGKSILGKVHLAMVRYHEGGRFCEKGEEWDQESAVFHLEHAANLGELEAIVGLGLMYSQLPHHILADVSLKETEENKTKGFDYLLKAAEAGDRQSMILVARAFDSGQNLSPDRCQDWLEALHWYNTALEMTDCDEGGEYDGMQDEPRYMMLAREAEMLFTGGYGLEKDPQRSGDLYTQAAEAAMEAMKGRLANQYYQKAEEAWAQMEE

[2] = biological target: T1, Eukaryotic elongation factor 2 kinase (Homo sapiens); assay: Inhibition of eEF2K in human MDA-MB-231 cells assessed as decrease in phosphorylation of eEF2 at Thr56 residue at 2.5 uM incubated for 2 hrs by western blot analysis
[3] = biological target: T1, Eukaryotic elongation factor 2 kinase (Homo sapiens); assay: Inhibition of eEF2K in human MDA-MB-231 cells assessed as decrease in phosphorylation of eEF2 at Thr56 residue at 20 uM incubated for 2 hrs by western blot analysis

| Structure (SMILES) | inhibition [1] | inhibition [2] | inhibition [3] |
| --- | --- | --- | --- |
| CCc1cccc2c3c([nH]c12)C(CC)(CC(=O)NCCN1CCCCC1)OCC3 (stereo not given) | Active | Active | – |
| CCc1cccc2c3c([nH]c12)C(CC)(CC(=O)N1CCCCC1)OCC3 (stereo not given) | – | – | Active |
| CCc1cccc2c3c([nH]c12)C(CC)(CC(=O)N1CCN(C)CC1)OCC3 (stereo not given) | Active | Active | – |
